≈ marks a conversion by molar mass, not a printed value.
What was measured:
P388 = test: Antiproliferative activity against mouse P388 cells assessed as inhibition of cell growth; type: functional, cell-based
4T1 = test: Antiproliferative activity against mouse 4T1 cells assessed as inhibition of cell growth incubated for 48 hrs by MTT assay; type: functional, cell-based; conditions: 4T1, 48 h
MCF7 [1] = test: Antiproliferative activity against human MCF7 cells assessed as inhibition of cell growth incubated for 48 hrs by MTT assay; type: functional, cell-based; conditions: MCF7, 48 h
NCI-H460 = test: Antiproliferative activity against human NCI-H460 cells assessed as inhibition of cell growth by MTT assay; type: functional, cell-based
HepG2 [2] = test: Antiproliferative activity against human HepG2 cells assessed as inhibition of cell growth by MTT assay; type: functional, cell-based
[3] = Antiproliferative activity against vincristine-resistant human KB cells assessed as inhibition of cell growth incubated for 72 hrs by MTT assay; type: functional, cell-based
MDA-MB-231 [4] = test: Antiproliferative activity against human MDA-MB-231 cells assessed as inhibition of cell growth incubated for 72 hrs by MTT assay; type: functional, cell-based; conditions: MDA-MB-231, 72 h
[5] = Antiproliferative activity against human AV3 cells assessed as inhibition of cell growth incubated for 72 hrs by MTT assay; type: functional, cell-based; conditions: AV3, 72 h
Huh-7 = test: Antiproliferative activity against human Huh-7 cells assessed as inhibition of cell growth incubated for 72 hrs by MTT assay; type: functional, cell-based; conditions: Huh-7, 72 h
A549 [6] = test: Antiproliferative activity against human A549 cells assessed as inhibition of cell growth incubated for 72 hrs by MTT assay; type: functional, cell-based; conditions: A549, 72 h, pooled result: one value given for 8 cell lines, strains, targets or settings
MDA-MB-231 [7] = test: Antiproliferative activity against human MDA-MB-231 cells assessed as inhibition of cell growth; type: functional, cell-based
PC-3 [8] = test: Antiproliferative activity against human PC-3 cells assessed as inhibition of cell growth; type: functional, cell-based
A549 [9] = test: Antiproliferative activity against human A549 cells assessed as inhibition of cell growth; type: functional, cell-based
[10] = Antiproliferative activity against vincristine-resistant human KB cells assessed as inhibition of cell growth; type: functional, cell-based
HT-29 = test: Antiproliferative activity against human HT-29 cells assessed as inhibition of cell growth; type: functional, cell-based
HCT-116 [11] = test: Antiproliferative activity against human HCT-116 cells assessed as inhibition of cell growth; type: functional, cell-based
MCF7 [12] = test: Antiproliferative activity against human MCF7 cells assessed as inhibition of cell growth; type: functional, cell-based
KB [13] = test: Antiproliferative activity against vincristine-sensitive human KB cells assessed as inhibition of cell growth; type: functional, cell-based
HCT-116 [14] = test: Antiproliferative activity against human HCT-116 cells assessed as inhibition of cell growth incubated for 24 hrs by MTT assay; type: functional, cell-based; conditions: HCT-116, 24 h
L1210 [15] = test: Antiproliferative activity against mouse L1210 cells assessed as inhibition of cell growth; type: functional; conditions: L1210, read-out: ED50
A549 [16] = test: Antiproliferative activity against human A549 cells assessed as inhibition of cell growth incubated for 48 hrs by MTT assay; type: functional, cell-based; conditions: A549, 48 h
BT-549 = test: Antiproliferative activity against human BT-549 cells assessed as inhibition of cell growth incubated for 48 hrs by MTT assay; type: functional, cell-based; conditions: BT-549, 48 h
PC-3 [17] = test: Antiproliferative activity against human PC-3 cells assessed as inhibition of cell growth incubated for 48 hrs by MTT assay; type: functional, cell-based; conditions: PC-3, 48 h
K562 = test: Antiproliferative activity against human K562 cells assessed as inhibition of cell growth incubated for 48 hrs by MTT assay; type: functional, cell-based; conditions: K562, 48 h
PANC-1 [18] = test: Antiproliferative activity against human PANC-1 cells assessed as inhibition of cell growth incubated for 72 hrs by MTT assay; type: functional, cell-based; conditions: PANC-1, 72 h
MIA PaCa-2 = test: Antiproliferative activity against human MIA PaCa-2 cells assessed as inhibition of cell growth incubated for 72 hrs by MTT assay; type: functional, cell-based; conditions: MIA PaCa-2, 72 h
BXPC-3 = test: Antiproliferative activity against human BXPC-3 cells assessed as inhibition of cell growth incubated for 72 hrs by MTT assay; type: functional, cell-based; conditions: BXPC-3, 72 h
ASPC1 = test: Antiproliferative activity against human ASPC1 cells assessed as inhibition of cell growth incubated for 72 hrs by MTT assay; type: functional, cell-based; conditions: ASPC1, 72 h
PANC-1 [19] = test: Antiproliferative activity against human PANC-1 cells assessed as inhibition of cell growth incubated for 24 hrs by FMCA assay; type: functional, cell-based; conditions: PANC-1, 24 h
[20] = Antiproliferative activity against human BC cells assessed as inhibition of cell growth incubated for 24 hrs by MTT assay; type: functional, cell-based
L1210 [21] = test: Antiproliferative activity against mouse L1210 cells assessed as inhibition of cell growth incubated for 24 hrs by MTT assay; type: functional, cell-based; conditions: L1210, 24 h
HepG2 [22] = test: Antiproliferative activity against human HepG2 cells assessed as inhibition of cell growth incubated for 24 hrs by MTT assay; type: functional, cell-based; conditions: HepG2, 24 h
AGS = test: Antiproliferative activity against human AGS cells assessed as inhibition of cell growth incubated for 24 hrs by MTT assay; type: functional, cell-based
Jurkat = test: Antiproliferative activity against human Jurkat cells assessed as inhibition of cell growth; type: functional, cell-based
KB [23] = test: Antiproliferative activity against drug-sensitive human KB cells assessed as inhibition of cell growth; type: functional, cell-based
HeLa = test: Antiproliferative activity against human HeLa cells assessed as inhibition of cell growth incubated for 48 hrs by MTS assay; type: functional, cell-based
HepG2 [24] = test: Antiproliferative activity against human HepG2 cells assessed as inhibition of cell growth incubated for 48 hrs by MTS assay; type: functional, cell-based; conditions: HepG2, 48 h
SMMC-7721 [25] = test: Antiproliferative activity against human SMMC-7721 cells assessed as inhibition of cell growth incubated for 48 hrs by MTS assay; type: functional, cell-based; conditions: SMMC-7721, 48 h
A549 [26] = test: Antiproliferative activity against human A549 cells assessed as inhibition of cell growth incubated for 48 hrs by MTS assay; type: functional, cell-based; conditions: A549, 48 h
PANC-1 [27] = test: Antiproliferative activity against human PANC-1 cells assessed as inhibition of cell growth incubated for 48 hrs by MTT assay; type: functional, cell-based; conditions: PANC-1, 48 h
HL-60 = test: Antiproliferative activity against human HL-60 cells assessed as inhibition of cell growth incubated for 48 hrs by MTT assay; type: functional, cell-based; conditions: HL-60, 48 h
SMMC-7721 [28] = test: Antiproliferative activity against human SMMC-7721 cells assessed as inhibition of cell growth incubated for 48 hrs by MTT assay; type: functional, cell-based; conditions: SMMC-7721, 48 h
SK-BR-3 = test: Antiproliferative activity against human SK-BR-3 cells assessed as inhibition of cell growth incubated for 48 hrs by MTT assay; type: functional, cell-based; conditions: SK-BR-3, 48 h
B16 = test: Antiproliferative activity against B16 cells assessed as inhibition of cell growth by MTT assay; type: functional, cell-based; conditions: Mus musculus
CCRF-CEM = test: Antiproliferative activity against human CCRF-CEM cells assessed as inhibition of cell growth by MTT assay; type: functional, cell-based
HepG2 [29] = test: Antiproliferative activity against human HepG2 cells assessed as inhibition of cell growth incubated for 24 hrs by colorimetric method; type: functional, cell-based; conditions: HepG2, 24 h
HCT-8 = test: Antiproliferative activity against human HCT-8 cells assessed as inhibition of cell growth; type: functional, cell-based
[30] = Antiproliferative activity against human MDA-MB cells assessed as inhibition of cell growth; type: functional, cell-based

COc1cc2c(cc1CC(C(C)=O)[C@@H]1C[C@H]3c4c(c5ccccc5n4C)C[C@@H]([C@@H]1CO)N3C)c1c(n2C)[C@@H]2C[C@H]3C(C(C)=O)=COC[C@H]3[C@H](C1)N2C (stereo partly specified)
IC50 (P388): 12.3 µg/mL (≈ 17.4 µM)

C/C=C1/CN(C)[C@H]2Cc3c([nH]c4ccccc34)[C@H](c3cc4[nH]c5c(c4cc3OC)CCN3C[C@@H]4C[C@H](CC)[C@H]3[C@@]5(C(=O)OC)C4)C[C@@H]1C2C(=O)OC (stereo partly specified)
IC50 (4T1): 1.42 µM | IC50 (MCF7 [1]): 0.99 µM

COC(=O)c1[nH]cc2c1[C@]1(CNc3ccc(Cl)cc31)c1[nH]c3ccc(Cl)cc3c1-2
IC50 (NCI-H460): 15 µg/mL (≈ 35.4 µM) | IC50 (HepG2 [2]): 6 µg/mL (≈ 14.1 µM)

O=C1NC(=O)c2c1c1c3ccccc3[nH]c1c1[nH]c3cc(O)ccc3c21
IC50 [3]: 2.28 µg/mL (≈ 6.68 µM)

C/C=C1/CCN2CC[C@@]34c5cc6c(cc5N(C)[C@]35OC[C@]4(C(=O)OC)[C@@H]1[C@H]25)O[C@@]12[C@@H]3C[C@H]4/C(=C\C)CN3CC[C@]1(C6)c1ccccc1N2[C@@H]4C(=O)OC
IC50 (MDA-MB-231 [4]): 9.8 µM | IC50 [5]: 9.8 µM | IC50 (Huh-7): 9.8 µM

c1ccc2c(C3(c4c[nH]c5ccccc45)CCCCC3)c[nH]c2c1
IC50 (A549 [6]): 18.7 µM

C/C=C1/CN2CC[C@]34C(=C(CN5c6ccccc6[C@@]67CCN8CCC[C@]9(CC[C@]56[C@H](C(=O)OC)C9)[C@H]87)[C@H]1C[C@H]23)Nc1ccccc14
IC50 (MDA-MB-231 [7]): 1.3 µM | IC50 (PC-3 [8]): 1.3 µM | IC50 (A549 [9]): 1.3 µM | IC50 [10]: 1.3 µM | IC50 (HT-29): 1.3 µM | IC50 (HCT-116 [11]): 1.3 µM | IC50 (MCF7 [12]): 1.3 µM | IC50 (KB [13]): 1.3 µM

O=C1C[C@@H]2c3ccc(O)c(O)c3[C@@]3(Nc4ccccc4C3=O)[C@@]23C(=O)c2ccccc2N13
IC50 (HCT-116 [14]): 78 µM

CN1C[C@H](c2c[nH]c3cc(Br)ccc23)NC[C@H]1c1c[nH]c2cc(Br)ccc12
EC50 (L1210 [15]): 10 µg/mL (≈ 20.5 µM)

CC[C@]12C=C[C@H](C3=CC4CC(C(=O)OC)=C5Nc6cc(OC)ccc6[C@@]56CCN(C3)[C@@H]46)N3CC[C@]4(C(=C(C(=O)OC)C1)Nc1cc(OC)ccc14)[C@@H]32 (stereo partly specified)
IC50 (A549 [16]): 11.4 µM | IC50 (BT-549): 0.89 µM | IC50 (PC-3 [17]): 3.44 µM | IC50 (K562): 10.7 µM

N=C(N)NCCSc1nc(-c2c[nH]c3cc(Br)ccc23)cnc1-c1c[nH]c2cc(Br)ccc12
IC50 (PANC-1 [18]): 18 µM | IC50 (MIA PaCa-2): 26 µM | IC50 (BXPC-3): 14 µM | IC50 (ASPC1): 27 µM

O=C1NCc2c1c1c3ccc(O)cc3[nH]c1c1[nH]c3ccccc3c21
IC50 (PANC-1 [19]): 68 µM

O=C1N[C@@H](c2c[nH]c3cc(Br)ccc23)CN=C1c1c[nH]c2cc(Br)ccc12 [HAMACANTHIN A]
IC50 [20]: 10.7 µg/mL (≈ 22 µM) | IC50 (L1210 [21]): 1.1 µg/mL (≈ 2.26 µM) | IC50 (HepG2 [22]): 12.5 µg/mL (≈ 25.7 µM) | IC50 (AGS): 1.1 µg/mL (≈ 2.26 µM)

C/C=C1/CN2CC[C@]34c5ccccc5N5[C@H](C(=O)OC)[C@H]1C[C@H]2[C@@]53Oc1c4cc2c(c1O)C(=O)O[C@@]13[C@@H]4C[C@H]5/C(=C\C)CN4CC[C@@]21c1ccccc1N3[C@@H]5C(=O)OC
IC50 (Jurkat): 3.7 µg/mL (≈ 4.65 µM) | IC50 [10]: 2 µg/mL | IC50 (KB [23]): 3.2 µg/mL (≈ 4.03 µM)

CC[C@]12CCCn3c(Cc4cc5c6n4CCC[C@]6(CC)CCC(=O)Nc4ccccc4-5)cc(c31)-c1ccccc1NC(=O)CC2
IC50 (HeLa): 4.4 µM | IC50 (HepG2 [24]): 7.02 µM | IC50 (SMMC-7721 [25]): 4.31 µM | IC50 (A549 [26]): 16.2 µM

CCC12CCCN3CC[C@@]4(OC)c5cc([C@@H]6C[C@@]7(CC)CCCN8CCc9c(n6c6ccccc96)[C@H]87)c(O)cc5N(CCC1)C324 (stereo partly specified)
IC50 (PANC-1 [27]): 0.5 µM | IC50 (A549 [16]): 0.5 µM | IC50 (HL-60): 0.5 µM | IC50 (SMMC-7721 [28]): 0.5 µM | IC50 (MCF7 [1]): 0.5 µM | IC50 (SK-BR-3): 0.5 µM

COC(=O)c1[nH]cc2c1[C@]1(CN(C)c3ccc(Cl)cc31)c1[nH]c3ccc(Cl)cc3c1-2
IC50 (B16): 5 µg/mL (≈ 11.4 µM) | IC50 (CCRF-CEM): 4 µg/mL (≈ 9.13 µM) | IC50 (NCI-H460): 12 µg/mL (≈ 27.4 µM)

C/C=C1/CCN2CC[C@@]34c5cc6c(cc5N(C)[C@]35OC[C@]4(C(=O)OC)[C@@H]1[C@H]25)O[C@@]12[C@@H]3C[C@H]4/C(=C\C)CN3CC[C@]1(C6)c1ccccc1N2[C@]4(CO)C(=O)OC
IC50 (MDA-MB-231 [4]): 9.8 µM | IC50 [5]: 9.8 µM | IC50 (Huh-7): 9.8 µM

COC(=O)/C1=C/c2c([nH]c3ccccc23)/C(C(=O)OC)=C\c2c1[nH]c1ccccc21 [CAULERPIN]
IC50 (HepG2 [29]): 24.6 µg/mL (≈ 61.7 µM)

CN1C[C@H](c2c[nH]c3c(Br)c(Br)cc(O)c23)NC[C@H]1c1c[nH]c2cc(Br)ccc12
IC50 (HCT-8): 1 µg/mL (≈ 1.71 µM) | IC50 (A549 [9]): 1 µg/mL | IC50 [30]: 1 µg/mL (≈ 1.71 µM)
